Patent EP4603105A1, “PHARMACEUTICAL COMPOSITION CONTAINING CYCLIC COMPOUND HAVING SELECTIVE KRAS INHIBITORY EFFECT AGAINST HRAS AND NRAS” (CHUGAI SEIYAKU KABUSHIKI KAISHA, priority 2022, dated 2024)
pIC50: −log10 of the molar value. *1 amine or outer side, *2 acyl side, *3 side chain or, on linkers, in order; H or OH if unused. Where a SMILES comes first, the peptide text is derived from it. Bridges are numbered along the chain shown (N, C = ends). [ ]: non-standard residue; d: D form. The star is where a group is joined. hPhe(3-Cl-4-CF3) = N[C@@H](CCc1ccc(C(F)(F)F)c(Cl)c1)C(=O)O; X43 = COCCCN([C@@H](Cc1ccc(C(F)(F)F)cc1)C(=O)[*:2])[*:1]; NPrPhe(4-CF3) = CCCN[C@@H](Cc1ccc(C(F)(F)F)cc1)C(=O)O; NMeGly(cPent) = CN[C@H](C(=O)O)C1CCCC1; Gly(cPent) = N[C@H](C(=O)O)C1CCCC1; Hyp = O=C(O)[C@@H]1C[C@@H](O)CN1; NMeD = CN[C@@H](CC(=O)O)C(=O)O; NMeL = CN[C@@H](CC(C)C)C(=O)O; Morpholide = C1CN(*)CCO1; Ac5c = NC1(C(=O)O)CCCC1; Aze = O=C(O)[C@@H]1CCN1; NEtG = CCNCC(=O)O; Sar = CNCC(=O)O

Experiments:
[1] = target: GDP-bound NRAS wild-type protein (Homo sapiens, UniProt P01111); assay: Binding to NRAS by surface plasmon resonance (SPR), KD and KD ratio to KRAS
Method in brief: (§1)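 SPR, 30°C: Avi-biotin RAS·GDP captured via Biotin CAPture (~100–300 RU); running buffer HBS pH 7.4, 1 mM DTT, 10 mM MgCl2, 0.01% Tween 20, 10 µM GDP, 4% DMSO. Single-cycle kinetics, 100 µL/min, 75 s injections; 1:1 model → KD.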

HRAS wild-type protein = HRAS wild-type protein (Homo sapiens, UniProt P01112); assay: Binding to HRAS by surface plasmon resonance (SPR), KD and KD ratio to KRAS
Method in brief: as §1

[2] = tested on: human lung cancer strain NCI-H441; assay type: cell-based
Method in brief: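 Proliferation was scored by […] measured after the reagent was added to cultures kept at 37°C in 5% carbon dioxide.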

[3] = ratio of KD for GDP-bound NRAS wild-type protein to KD for KRAS
[4] = ratio of KD for HRAS wild-type protein to KD for KRAS
[5] = ratio of KD value for GDP-bound NRAS wild-type protein to KD value for KRAS (SPR)
[6] = ratio of KD value for HRAS wild-type protein to KD value for KRAS (SPR)
[7] = ratio of the KD value with respect to GDP-bound NRAS wild-type protein to the KD value with respect to KRAS
[8] = ratio of the KD value with respect to HRAS wild-type protein to the KD value with respect to KRAS

Sequence of HRAS wild-type protein (P01112 whole entry): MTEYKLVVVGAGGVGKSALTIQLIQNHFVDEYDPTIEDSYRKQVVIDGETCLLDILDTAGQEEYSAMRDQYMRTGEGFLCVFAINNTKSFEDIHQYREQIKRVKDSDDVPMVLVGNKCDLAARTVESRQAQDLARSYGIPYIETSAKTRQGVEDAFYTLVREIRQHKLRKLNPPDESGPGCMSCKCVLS
Sequence of GDP-bound NRAS wild-type protein (P01111 whole entry): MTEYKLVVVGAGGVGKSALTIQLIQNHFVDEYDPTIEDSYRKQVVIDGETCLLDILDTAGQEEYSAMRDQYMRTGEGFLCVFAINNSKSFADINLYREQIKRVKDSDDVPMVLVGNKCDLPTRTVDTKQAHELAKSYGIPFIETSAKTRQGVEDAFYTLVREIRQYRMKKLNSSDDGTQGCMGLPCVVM

Row | SMILES | pIC50 [2] | NRAS /KRAS [1, 3] | HRAS /KRAS (HRAS wild-type protein; [4]) | NRAS /KRAS [1, 5] | HRAS /KRAS (HRAS wild-type protein; [6]) | NRAS /KRAS [1, 7] | HRAS /KRAS (HRAS wild-type protein; [8])
1 | CCCN1C(=O)CN(C)C(=O)CNC(=O)[C@H]([C@@H](C)CC)NC(=O)[C@H](CC(C)C)N(C)C(=O)C[C@@H](C(=O)N2CCOCC2)NC(=O)[C@H](C2CCCC2)N(C)C(=O)C2(CCCC2)NC(=O)[C@@H]2C[C@@H](OCC)CN2C(=O)[C@H](CCc2ccc(C(F)(F)F)c(Cl)c2)NC(=O)CN(C)C(=O)[C@@H]1Cc1ccc(C(F)(F)F)cc1 [PP0329] ([NMeL]IG[Sar][NPrPhe(4-CF3)][Sar][hPhe(3-Cl-4-CF3)][Hyp](Et)[Ac5c][NMeGly(cPent)]D-Morpholide; lactam N-11) | 7.18 | B (a compound having 3 or more and less than 10 is denoted as B) | C (A compound having a KD ratio of 0.1 or more and less than 3 is denoted as C) |  |  |  | 
2 | CC[C@H](C)[C@@H]1NC(=O)[C@H](CC(C)C)N(C)C(=O)C[C@@H](C(=O)N(C)CC)N(C)C(=O)[C@H](C2CCCC2)N(C)C(=O)C2(CC(C)(C)C2)NC(=O)[C@@H]2C[C@@H](F)CN2C(=O)[C@H](CCc2cc(F)c(C(F)(F)F)c(F)c2)NC(=O)CN(C)C(=O)[C@H](Cc2ccc(C(F)(F)F)cc2)N2CC/C=C\C[C@@H](C2=O)N(C)C(=O)CN(C)C1=O [PP1694] | 8.39 |  |  | A (a compound having 10 or more and less than 20 is denoted as A) | A (a compound having 10 or more and less than 20 is denoted as A) |  | 
3 | CCO[C@@H]1C[C@H]2C(=O)NC3(CC(C)(C)C3)C(=O)N(C)[C@@H](C3CCCC3)C(=O)N(C)[C@H](C(=O)N3CCOCC3)CC(=O)N(C)[C@@H](CC(C)C)C(=O)N[C@@H]([C@@H](C)CC)C(=O)N(C)CC(=O)N(C)[C@H]3CCCCCN(C3=O)[C@@H](Cc3ccc(C(F)(F)F)cc3)C(=O)N(C)CC(=O)N[C@@H](CCc3cc(F)c(C(F)(F)F)c(F)c3)C(=O)N2C1 [PP0726] | 7.49 |  |  |  |  | B (a compound having 3 or more and less than 10 is denoted as B) | B (a compound having 3 or more and less than 10 is denoted as B)
4 | CCCN1C(=O)CN(C)C(=O)CNC(=O)[C@H]([C@@H](C)CC)NC(=O)[C@H](CC(C)C)N(C)C(=O)C[C@@H](C(=O)N2CCOCC2)N(C)C(=O)[C@H](C2CCCC2)N(C)C(=O)C2(CCCC2)NC(=O)[C@@H]2CCCN2C(=O)[C@H](CCc2ccc(C(F)(F)F)c(Cl)c2)NC(=O)CN(CC)C(=O)[C@@H]1Cc1ccc(C(F)(F)F)cc1 [PP1969] ([NMeL]IG[Sar][NPrPhe(4-CF3)][NEtG][hPhe(3-Cl-4-CF3)]P[Ac5c][NMeGly(cPent)][NMeD]-Morpholide; lactam N-11) | 7.13 |  |  |  |  | B (a compound having 3 or more and less than 10 is denoted as B) | C (A compound having a KD ratio of 0.1 or more and less than 3 is denoted as C)
5 | CCCN(C)C(=O)[C@@H]1CC(=O)N(C)[C@@H](C2CC2)C(=O)N[C@@H]([C@@H](C)CC)C(=O)N(C)CC(=O)N(C)[C@H]2C/C=C\CCN(C2=O)[C@@H](Cc2ccc(C(F)(F)F)cc2)C(=O)N(C)CC(=O)N[C@@H](CCc2cc(F)c(C(F)(F)F)c(F)c2)C(=O)N2C[C@@H](C)C[C@H]2C(=O)NC2(CCC2)C(=O)N(C)[C@@H](C2CCCC2)C(=O)N1C [PP2081] | 7.95 |  |  |  |  | A (a compound having 10 or more and less than 20 is denoted as A) | A (a compound having 10 or more and less than 20 is denoted as A)
6 | CCCN1C(=O)CN(C)C(=O)CN(CC)C(=O)[C@H](C2CCCC2)NC(=O)[C@H](CC(C)C)N(C)C(=O)C[C@@H](C(=O)N2CCOCC2)N(C)C(=O)[C@H](C2CCCC2)N(C)C(=O)C2(CCCC2)NC(=O)[C@@H]2CCCN2C(=O)[C@H](CCc2ccc(C(F)(F)F)c(Cl)c2)NC(=O)CN(C)C(=O)[C@@H]1Cc1ccc(C(F)(F)F)cc1 [PP0293] ([NMeL][Gly(cPent)][NEtG][Sar][NPrPhe(4-CF3)][Sar][hPhe(3-Cl-4-CF3)]P[Ac5c][NMeGly(cPent)][NMeD]-Morpholide; lactam N-11) | 7.42 | B (a compound having 3 or more and less than 10 is denoted as B) | C (A compound having a KD ratio of 0.1 or more and less than 3 is denoted as C) |  |  |  | 
7 | CC[C@H](C)[C@@H]1NC(=O)[C@H](CC(C)C)N(C)C(=O)C[C@@H](C(=O)N2CCOCC2)N(C)C(=O)[C@H](C2CCCC2)N(C)C(=O)C2(CCCC2)NC(=O)[C@@H]2CCCN2C(=O)[C@H](CCc2ccc(C(F)(F)F)c(Cl)c2)NC(=O)CN(C)C(=O)[C@H](Cc2ccc(C(F)(F)F)cc2)N(CCCOC)C(=O)CN(C)C(=O)CN(C)C1=O [PP0133] ([NMeL]I[Sar][Sar][X43][Sar][hPhe(3-Cl-4-CF3)]P[Ac5c][NMeGly(cPent)][NMeD]-Morpholide; lactam N-11) | 8.19 | B (a compound having 3 or more and less than 10 is denoted as B) | C (A compound having a KD ratio of 0.1 or more and less than 3 is denoted as C) |  |  |  | 
8 | CCCN1C(=O)[C@@H]2CCN2C(=O)CN(CC)C(=O)[C@H]([C@@H](C)CC)NC(=O)[C@H](CC(C)C)N(C)C(=O)C[C@@H](C(=O)N2CCOCC2)N(C)C(=O)[C@H](C2CCCC2)N(C)C(=O)C2(CCCC2)NC(=O)[C@@H]2CCCN2C(=O)[C@H](CCc2ccc(C(F)(F)F)c(Cl)c2)NC(=O)CN(C)C(=O)[C@@H]1Cc1ccc(C(F)(F)F)cc1 [PP0259] ([NMeL]I[NEtG][Aze][NPrPhe(4-CF3)][Sar][hPhe(3-Cl-4-CF3)]P[Ac5c][NMeGly(cPent)][NMeD]-Morpholide; lactam N-11) | 7.99 | C (A compound having a KD ratio of 0.1 or more and less than 3 is denoted as C) | B (a compound having 3 or more and less than 10 is denoted as B) |  |  |  | 
9 | CCO[C@@H]1C[C@H]2C(=O)NC3(CC(C)(C)C3)C(=O)N(C)[C@@H](C3CCCC3)C(=O)N(CC)[C@H](C(=O)N(C)C)CC(=O)N(C)[C@@H](CC(C)C)C(=O)N[C@@H]([C@@H](C)CC)C(=O)NCC(=O)N(C)[C@H]3C/C=C\CCN(C3=O)[C@@H](Cc3ccc(C(F)(F)F)cc3)C(=O)N(C)CC(=O)N[C@@H](CCc3cc(F)c(C(F)(F)F)c(F)c3)C(=O)N2C1 [PP1773] | 7.40 |  |  | A (a compound having 10 or more and less than 20 is denoted as A) | A (a compound having 10 or more and less than 20 is denoted as A) |  | 
10 | CCO[C@@H]1C[C@H]2C(=O)NC3(CCC3)C(=O)N(C)[C@@H](C3CCCC3)C(=O)N(C)[C@H](C(=O)N(C)C)CC(=O)N(C)[C@@H](CC)C(=O)N[C@@H]([C@@H](C)CC)C(=O)N(C)CC(=O)N(C)[C@H]3CCCCCN(C3=O)[C@@H](Cc3ccc(C(F)(F)F)cc3)C(=O)N(C)CC(=O)N[C@@H](CCc3cc(F)c(C(F)(F)F)c(F)c3)C(=O)N2C1 [PP0663] | 7.64 |  |  |  |  | B (a compound having 3 or more and less than 10 is denoted as B) | B (a compound having 3 or more and less than 10 is denoted as B)

Second part, led by results:

Row | pIC50 [2] | SMILES | NRAS /KRAS [1, 3] | HRAS /KRAS (HRAS wild-type protein; [4]) | NRAS /KRAS [1, 5] | HRAS /KRAS (HRAS wild-type protein; [6]) | NRAS /KRAS [1, 7] | HRAS /KRAS (HRAS wild-type protein; [8])
11 | 7.91 | CCO[C@@H]1C[C@H]2C(=O)NC3(CC(C)(C)C3)C(=O)N(C)[C@@H](C3CCCC3)C(=O)N(C)[C@H](C(=O)N(C)CC)CC(=O)N(C)[C@@H](CC)C(=O)N[C@@H]([C@@H](C)CC)C(=O)N(C)CC(=O)N(C)[C@H]3C/C=C\CCN(C3=O)[C@@H](Cc3ccc(C)cc3)C(=O)N(C)CC(=O)N[C@@H](CCc3ccc(C(F)(F)F)c(OC)c3)C(=O)N2C1 [PP1872] |  |  | A (a compound having 10 or more and less than 20 is denoted as A) | A (a compound having 10 or more and less than 20 is denoted as A) |  | 
12 | 7.98 | CCC[C@H]1C(=O)N[C@@H]([C@@H](C)CC)C(=O)N(C)CC(=O)N(C)[C@H]2C/C=C\CCN(C2=O)[C@@H](Cc2ccc(C(F)(F)F)cc2)C(=O)N(C)CC(=O)N[C@@H](CCc2ccc(Cl)c(C(F)(F)F)c2)C(=O)N2C[C@H](OCC)C[C@H]2C(=O)NC2(CC(C)(C)C2)C(=O)N(C)[C@@H](C(CC)CC)C(=O)N(C)[C@H](C(=O)N(C)C)CC(=O)N1C [PP2785] | AA (a compound having 20 or more is denoted as AA) | A (a compound having 10 or more and less than 20 is denoted as A) |  |  |  | 
13 | 8.12 | C#CC[C@H]1C(=O)N[C@@H]([C@@H](C)CC)C(=O)N(C)CC(=O)N(C)[C@H]2C/C=C\CCN(C2=O)[C@@H](Cc2ccc(C(F)(F)F)cc2)C(=O)N(C)CC(=O)N[C@@H](CCc2ccc(C(F)(F)F)c(Cl)c2)C(=O)N2C[C@H](OCC)C[C@H]2C(=O)NC2(CC(C)(C)C2)C(=O)N(C)[C@@H](C2CCCC2)C(=O)N(C)[C@H](C(=O)N(C)CC)CC(=O)N1C [PP2844] | A (a compound having 10 or more and less than 20 is denoted as A) | A (a compound having 10 or more and less than 20 is denoted as A) |  |  |  | 
14 | 8.10 | CCC[C@H]1C(=O)N[C@@H]([C@@H](C)CC)C(=O)N(C)CC(=O)N(C)[C@H]2C/C=C\CCN(C2=O)[C@@H](Cc2ccc(C(F)(F)F)cc2)C(=O)N(C)CC(=O)N[C@@H](CCc2ccc3sc(F)c(C)c3c2)C(=O)N2C[C@H](OCC)C[C@H]2C(=O)NC2(CC(C)(C)C2)C(=O)N(C)[C@@H](C(CC)CC)C(=O)N(C)[C@H](C(=O)N(C)C)CC(=O)N1C [PP2892] | A (a compound having 10 or more and less than 20 is denoted as A) | A (a compound having 10 or more and less than 20 is denoted as A) |  |  |  | 
